Test results from patent US20120277257A1, “Methods of Treating Diseases, Pharmaceutical Compositions, and Pharmaceutical Dosage Forms” (MYREXIS, INC., priority 2009, published 2012).
Like-named read-outs stand apart in the source and are kept apart here.

Columns and labels:
[1] = Phase I clinical trial, human plasma pharmacokinetics of oral Compound 1; type: in vivo; conditions: human, plasma, po; for Vd/F: read-out: Vz/F
Experimental: A human clinical study was initiated at a starting dose of 50 mg/m^2. Subjects had recurrent cancer refractory to available systemic therapy. Compound 1 was administered daily by mouth in tablet form for 21 consecutive days in a 28 day cycle to each enrolled subject. […] Plasma was collected pre-dose only for cycle 1 day 8. […] Patients were men and women with metastatic cancer, ranged in age from 45 to 85 years, and received doses ranging from 50 mg/m^2 to 340 mg/m^2, with a total daily dose of 100-740 mg (Tables 2A and 2B).

[2] = system: Hsp70 protein levels in PBMCs; assay: Hsp70 protein levels in PBMCs of patients (ELISA); type: in vivo, human; conditions: 8 hours after the first dose, sustained on day 8 and day 22
Experimental: A human clinical study was initiated at a starting dose of 50 mg/m^2. Subjects had recurrent cancer refractory to available systemic therapy. […] For determination of drug levels in humans, plasma was collected prior to drug administration and 0.5, 1, 2, 3, 4, 6, 8, and 24 hours post-dosing on cycle 1 day 1, and cycle 1 day 21. Plasma was collected pre-dose only for cycle 1 day 8.
Hsp70 protein levels were determined by an ELISA with a Hsp 70 ELISA kit (catalog #EKS-700B, Assay Designs, Stressgen, Ann Arbor, Mich.) as per the manufacturer's protocol.

[3] = Plasma pharmacokinetics in N-87 tumor-bearing nude mice; type: in vivo; conditions: mouse, 200 mg/kg single dose, median values (n = 6)
Experimental: Xenografted mice bearing N-87 tumors (median volume ˜425 mm^3) were given a single oral dose of Compound 1 (200 mg/kg). Blood, tumor and liver samples (n=6) were collected at 0.25, 0.5, 1, 2, 4, 8, 12, 24, 36 and 48 h post-dose and used to determine Compound 1 concentrations in the plasma and Hsp70 RNA levels in tumor and liver samples (See FIG. 6). Hsp70 RNA levels were determined by qRT-PCR.

[4] = system: MIA PaCa-2 pancreatic cancer; assay: MIA PaCa-2 pancreatic cancer xenograft
[5] = 100 mg/m^2, Day 01, Cohort 2, Subject 201, 100 mg/m^2 (160 mg), oral daily
[6] = 100 mg/m^2, Day 21, Cohort 2, 100 mg/m^2 (160 mg), oral daily
[7] = 100 mg/m^2, Day 21, Cohort 2, Subject 201, 100 mg/m^2 (160 mg), oral daily
[8] = 165 mg/m^2, Day 01, Cohort 3, Subject 301, 165 mg/m^2 (300 mg), oral daily
[9] = 165 mg/m^2, Day 21, Cohort 3, 165 mg/m^2 (300 mg), oral daily
[10] = 165 mg/m^2, Day 21, Cohort 3, Subject 301, 165 mg/m^2 (300 mg), oral daily
[11] = 245 mg/m^2, Day 01, Cohort 4, N = 6, 245 mg/m^2 (340-540 mg), oral daily
[12] = 340 mg/m^2, Day 01, Cohort 5, 340 mg/m^2 (480-620 mg), oral daily
[13] = 340 mg/m^2, Day 01, Cohort 5, N = 2, 340 mg/m^2 (480-620 mg), oral daily
[14] = 340 mg/m^2, Day 21, Cohort 5 (BID), Subject 508, 340 mg/m^2 (330 mg), oral twice daily
[15] = 340 mg/m^2, Day 21, Cohort 5, 340 mg/m^2 (620 mg), oral daily
[16] = 340 mg/m^2, Day 21, Cohort 5, Subject 503, 340 mg/m^2 (620 mg), oral daily
[17] = Day 21, Cohort 4, 176-245 mg/m^2 (340-540 mg), oral daily

C[C@H](O)C(=O)N1CCC(CCn2c(Sc3cc4c(cc3Br)OCO4)nc3c(N)ncnc32)CC1 [Compound 1, (2S)-1-[4-(2-{6-amino-8-[(6-bromo-1,3-benzodioxol-5-yl)thio]-9H-purin-9-yl}ethyl)piperidin-1-yl]-1-oxopropan-2-ol]
Tmax [1, 5]: 2 h | half-life [1, 5]: 9.8 h | AUC(0-inf) [1, 6]: 67.3 µg·h/mL | AUC(0-t) ([1]; 100 mg/m^2, Day 21, Cohort 2, 100 mg/m^2 (160 mg), oral daily, read-out: AUC(0-24)): 49.8 µg·h/mL | Vd/F [1, 6]: 52 L | Cmax [1, 7]: 3180 ng/mL | Tmax [1, 7]: 6 h | half-life [1, 7]: 11.2 h | Cmax [1, 8]: 6870 ng/mL | Tmax [1, 8]: 4 h | half-life [1, 8]: 11.5 h | AUC(0-inf) [1, 9]: 308 µg·h/mL | AUC(0-t) ([1]; 165 mg/m^2, Day 21, Cohort 3, 165 mg/m^2 (300 mg), oral daily, read-out: AUC(0-24)): 200 µg·h/mL | Vd/F [1, 9]: 30.4 L | Cmax [1, 10]: 11800 ng/mL | Tmax [1, 10]: 8 h | half-life [1, 10]: 14 h | AUC(0-inf) ([1]; 240 mg, Day 01, Cohort 6 (BID), 240 mg, oral twice daily, based on a single 12-hour dosing interval): 55 µg·h/mL | AUC(0-t) ([1]; 240 mg, Day 01, Cohort 6 (BID), 240 mg, oral twice daily, read-out: AUC(0-12)): 38.2 µg·h/mL | Vd/F ([1]; 240 mg, Day 01, Cohort 6 (BID), 240 mg, oral twice daily): 39.6 L | AUC(0-inf) ([1]; 240 mg, Day 21, Cohort 6 (BID), 240 mg, oral twice daily, based on a single 12-hour dosing interval): 95.1 µg·h/mL | AUC(0-t) ([1]; 240 mg, Day 21, Cohort 6 (BID), 240 mg, oral twice daily, read-out: AUC(0-12)): 67.6 µg·h/mL | Vd/F ([1]; 240 mg, Day 21, Cohort 6 (BID), 240 mg, oral twice daily): 34.6 L | Cmax [1, 11]: 7840 ng/mL | Tmax [1, 11]: 2.5 h | half-life [1, 11]: 10.8 h | AUC(0-inf) ([1]; 340 mg/m^2, Day 01, Cohort 5 (BID), 340 mg/m^2 (270-370 mg), oral twice daily, based on a single 12-hour dosing interval): 107 µg·h/mL | AUC(0-t) ([1]; 340 mg/m^2, Day 01, Cohort 5 (BID), 340 mg/m^2 (270-370 mg), oral twice daily, read-out: AUC(0-12)): 62.1 µg·h/mL | Vd/F ([1]; 340 mg/m^2, Day 01, Cohort 5 (BID), 340 mg/m^2 (270-370 mg), oral twice daily): 28.4 L | AUC(0-inf) [1, 12]: 334 µg·h/mL | AUC(0-t) ([1]; 340 mg/m^2, Day 01, Cohort 5, 340 mg/m^2 (480-620 mg), oral daily, read-out: AUC(0-24)): 233 µg·h/mL | Vd/F [1, 12]: 51.4 L | Cmax [1, 13]: 16300 ng/mL | Tmax [1, 13]: 3 h | half-life [1, 13]: 14.1 h | AUC(0-inf) ([1]; 340 mg/m^2, Day 21, Cohort 5 (BID), 340 mg/m^2 (330 mg), oral twice daily, based on a single 12-hour dosing interval): 96.3 µg·h/mL | AUC(0-t) ([1]; 340 mg/m^2, Day 21, Cohort 5 (BID), 340 mg/m^2 (330 mg), oral twice daily, read-out: AUC(0-12)): 69.5 µg·h/mL | Vd/F ([1]; 340 mg/m^2, Day 21, Cohort 5 (BID), 340 mg/m^2 (330 mg), oral twice daily): 45.7 L | Cmax [1, 14]: 11000 ng/mL | Tmax [1, 14]: 1 h | half-life [1, 14]: 6.7 h | AUC(0-inf) [1, 15]: 610 µg·h/mL | AUC(0-t) ([1]; 340 mg/m^2, Day 21, Cohort 5, 340 mg/m^2 (620 mg), oral daily, read-out: AUC(0-24)): 363 µg·h/mL | Vd/F [1, 15]: 36.8 L | Cmax [1, 16]: 25600 ng/mL | Tmax [1, 16]: 1 h | half-life [1, 16]: 19.3 h | AUC(0-inf) [1, 17]: 202 µg·h/mL | AUC(0-t) ([1]; Day 21, Cohort 4, 176-245 mg/m^2 (340-540 mg), oral daily, read-out: AUC(0-24)): 127 µg·h/mL | Vd/F [1, 17]: 77.9 L | Hsp70 levels in protein extracts derived from PBMCs [2]: showed an increase | Cmax ([3]; oral): 21800 ng/mL | AUC(0-t) ([3]; oral, read-out: AUC(0-24)): 136 µg·h/mL | Tmax ([3]; po): 4 h | half-life ([3]; po): 4.8 h | TGI (tumor growth inhibition) ([4]; 150 mg/kg oral, daily for 15 days, Day 15): 67% | TGI (tumor growth inhibition) ([4]; 150 mg/kg oral, daily for 21 days (Table 1)): 67% | TGI (tumor growth inhibition) ([4]; 200 mg/kg oral, daily for 15 days, Day 15): 95% | TGI (tumor growth inhibition) ([4]; 200 mg/kg oral, daily for 21 days (Table 1)): 95%
